Data taken from US11957696B2 (Propella Therapeutics, Inc., priority 2021, dated 2024).

Key:
[1] = PK of single IM abiraterone decanoate in chemically castrated monkeys (abiraterone plasma); format: in vivo, cynomolgus monkeys; details: single IM 10 mg/kg
LH = LH analysis (serum) in 13-week study; format: in vivo, cynomolgus monkeys; parameters: LH: unit not given here
Description: Sample Collection for LH Analysis (Serum): Blood samples (approximately 2.5 mL) were collected from all animals via the femoral vein for determination of the serum concentrations of LH. The animals were fasted prior to blood collection except one deviation.

CYP17A1 = molecular target: T1, CYP17A1 (Macaca fascicularis, UniProt Q2XVA1); experiment: PD (progesterone, cortisol, dihydrotestosterone, testosterone levels) in chemically castrated monkeys; format: in vivo, cynomolgus monkeys
T1 construct: endogenous in cells; host or cells: live male cynomolgus monkeys (in vivo; steroidogenic tissues)
T1 sequence (Q2XVA1 1-508): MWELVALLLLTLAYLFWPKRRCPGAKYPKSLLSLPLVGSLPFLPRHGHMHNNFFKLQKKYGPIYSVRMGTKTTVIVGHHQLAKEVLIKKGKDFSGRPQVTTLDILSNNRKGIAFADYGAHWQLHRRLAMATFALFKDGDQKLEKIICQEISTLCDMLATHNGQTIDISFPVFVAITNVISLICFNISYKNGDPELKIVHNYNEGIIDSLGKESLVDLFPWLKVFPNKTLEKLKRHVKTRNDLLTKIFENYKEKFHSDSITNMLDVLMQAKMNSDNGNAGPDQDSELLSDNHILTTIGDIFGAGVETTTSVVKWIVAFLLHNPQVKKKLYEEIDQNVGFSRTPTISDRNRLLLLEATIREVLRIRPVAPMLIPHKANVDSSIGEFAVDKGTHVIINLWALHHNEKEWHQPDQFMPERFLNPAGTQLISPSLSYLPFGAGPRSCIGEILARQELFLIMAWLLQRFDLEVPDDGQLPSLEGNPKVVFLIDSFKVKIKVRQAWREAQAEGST
Excerpt: The effects of administering dexamethasone and methylprednisolone acetate according to the schedule of this Example were also shown in FIGS. 5A, 5B, 5C, and 5D.

CYP17 = molecular target: T2, CYP17 (Rattus norvegicus, UniProt P11715); experiment: Serum steroid levels after single IV or IM injection in tissue uptake study; format: in vivo, strain CD [Crl:CD(SD)]; details: rats
T2 construct: endogenous in cells; host or cells: live CD [Crl:CD(SD)] rats (in vivo)
T2 sequence (P11715 1-507): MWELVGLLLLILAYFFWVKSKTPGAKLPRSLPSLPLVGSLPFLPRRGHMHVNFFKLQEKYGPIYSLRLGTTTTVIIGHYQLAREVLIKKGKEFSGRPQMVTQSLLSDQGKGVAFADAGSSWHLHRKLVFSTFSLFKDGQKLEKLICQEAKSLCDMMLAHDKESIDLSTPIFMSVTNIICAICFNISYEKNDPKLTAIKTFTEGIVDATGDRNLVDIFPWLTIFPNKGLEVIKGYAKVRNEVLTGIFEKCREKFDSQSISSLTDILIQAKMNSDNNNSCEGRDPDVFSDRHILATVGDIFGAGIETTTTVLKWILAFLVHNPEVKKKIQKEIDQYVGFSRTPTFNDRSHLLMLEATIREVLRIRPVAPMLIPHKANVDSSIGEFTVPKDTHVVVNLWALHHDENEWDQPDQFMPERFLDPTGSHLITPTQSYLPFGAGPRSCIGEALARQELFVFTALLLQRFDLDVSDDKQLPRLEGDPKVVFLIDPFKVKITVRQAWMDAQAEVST
Excerpt: Vehicle for IM injection: Corn oil with 10% benzyl alcohol (w/v) and 20% benzyl benzoate (w/v). The study followed the protocols described below.
For serum steroid analysis, blood samples were collected from animals in each study group at predose and at terminal necropsy according to the following protocol. Animals were designated for 72 hr and 168 hr necropsy, the animals will be fasted overnight before scheduled blood collections. Plasma samples will be used for ACTH level analysis. Serum samples will be used for LH level analysis and steroid level analysis. Plasma samples will also be collected at various time points and be analyzed for abiraterone decanoate and abiraterone. Representative samples of tissues will be collected and snap frozen and analyzed. Lung, Liver, Adrenal glands, Prostate, Testes (Sample 1 and 2) and lymph nodes tissues will be collected. Lymph node(s) draining administration site(s): Inguinal (Groups 1-4) and Iliac (Groups 1 and 3 only). Lymph node, mandibular and Lymph node mesenteric tissues will also be collected.

ACTH = ACTH analysis (plasma) in 13-week study; format: in vivo, cynomolgus monkeys
Description: Sample Collection for ACTH Analysis (Plasma): Blood samples (approximately 2.5 mL) were collected from all animals via the femoral vein for determination of the plasma concentrations of ACTH. The animals were fasted prior to blood collection except one deviation.

[2] = single intramuscular dose (90 mg/kg)

CCCCCCCCCC(=O)O[C@H]1CC[C@@]2(C)C(=CC[C@@H]3[C@@H]2CC[C@]2(C)C(c4cccnc4)=CC[C@@H]32)C1 [Abiraterone Decanoate, abiraterone decanoate]
abiraterone in the plasma at Day 70 [1]: measurable
LH (LH; 20 mg/kg, N 4, Day 8): 1.67
LH (LH; 20 mg/kg, N 4, Day 15): 1.67
LH (LH; 20 mg/kg, N 4, Day 78): 5.67
LH (LH; 20 mg/kg, N 4, Day 85): 3.12
LH (LH; 60 mg/kg, N 4, Day 8): 2.78
LH (LH; 60 mg/kg, N 4, Day 15): 2.73
LH (LH; 60 mg/kg, N 4, Day 78): 7.12
LH (LH; 60 mg/kg, N 4, Day 85): 7.07
LH (LH; 200 mg/kg, N 6, Day 8): 1.98
LH (LH; 200 mg/kg, N 6, Day 15): 2.33
LH (LH; 200 mg/kg, N 6, Day 78): 5.04
LH (LH; 200 mg/kg, N 6, Day 85): 5.27
LH concentrations (LH; following abiraterone decanoate administration): no clear effects
PD effects relative to abiraterone plasma concentration (CYP17A1; 10 mg/kg dosing group): prolonged PD effects were observed even after abiraterone plasma concentration dropped below 1 ng/mL
progesterone, cortisol, dihydrotestosterone and testosterone levels (CYP17A1; single dose IM, all three doses): sustained increase of progesterone level and reduction of cortisol, dihydrotestosterone, and testosterone level
duration of CYP17A1 inhibition (CYP17A1; single dose IM, all three doses (10, 30, 100 mg/kg)): ≥ 70 days
circulating androgen levels (androstenedione and testosterone) (CYP17; [2]): potent reductions
levels of progesterone and corticosterone (CYP17; [2]): increased
sustained reduction of testosterone (CYP17; single intramuscular dose, last time point tested): ≥ 168 h
ACTH fold change of treated group mean relative to pretreatment (Day −1) mean (ACTH; 20 mg/kg/dose, Day 8): 1.72×
ACTH fold change of treated group mean relative to pretreatment (Day −1) mean (ACTH; 20 mg/kg/dose, Day 15): 2.63×
ACTH fold change of treated group mean relative to pretreatment (Day −1) mean (ACTH; 20 mg/kg/dose, Day 78): 2.30×*
ACTH fold change of treated group mean relative to pretreatment (Day −1) mean (ACTH; 20 mg/kg/dose, Day 85): 1.89×*
ACTH fold change of treated group mean relative to pretreatment (Day −1) mean (ACTH; 60 mg/kg/dose, Day 8): 2.55×*
ACTH fold change of treated group mean relative to pretreatment (Day −1) mean (ACTH; 60 mg/kg/dose, Day 15): 2.35×*
ACTH fold change of treated group mean relative to pretreatment (Day −1) mean (ACTH; 60 mg/kg/dose, Day 78): 1.33×*
ACTH fold change of treated group mean relative to pretreatment (Day −1) mean (ACTH; 60 mg/kg/dose, Day 85): 1.36×*
ACTH fold change of treated group mean relative to pretreatment (Day −1) mean (ACTH; 200 mg/kg/dose, Day 8): 4.90×*
ACTH fold change of treated group mean relative to pretreatment (Day −1) mean (ACTH; 200 mg/kg/dose, Day 15): 5.14×*
ACTH fold change of treated group mean relative to pretreatment (Day −1) mean (ACTH; 200 mg/kg/dose, Day 78): 4.65×*
ACTH fold change of treated group mean relative to pretreatment (Day −1) mean (ACTH; 200 mg/kg/dose, Day 85): 4.66×*
ACTH concentrations (ACTH; males at ≥20 mg/kg/dose): increases
